From the CheMixHub ionic liquid set
Where “and” joins values, the source holds several entries; their conditions need not be identical. Equal entries are not always repeated.

Experiment: xn = mol fraction of the nth substance listed
Conditions: 298.15 K, 101 kPa, frequency 0.001 MHz

CCCCCCCCCCCCCCCC[N+](C)(C)C.[Br-] + CCCCCCCCCCCCOS(=O)(=O)[O-].[Na+] + O
Conditions | electrical conductivity
x2 = 0, x1 = 3e-08 | 0.000332 S/m
x2 = 0, x1 = 1.09e-06 | 0.001 S/m
x2 = 0, x1 = 2.34e-06 | 0.00165 S/m
x2 = 0, x1 = 3.39e-06 | 0.00255 S/m
x2 = 0, x1 = 4.43e-06 | 0.00305 S/m
x2 = 0, x1 = 5.57e-06 | 0.00366 S/m
x2 = 0, x1 = 6.72e-06 | 0.00441 S/m
x2 = 0, x1 = 7.97e-06 | 0.00511 S/m
x2 = 0, x1 = 8.91e-06 | 0.00577 S/m
x2 = 0, x1 = 1.12e-05 | 0.00697 S/m
x2 = 0, x1 = 1.213e-05 | 0.00757 S/m
x2 = 0, x1 = 1.307e-05 | 0.00823 S/m
x2 = 0, x1 = 1.411e-05 | 0.00873 S/m
x2 = 0, x1 = 1.526e-05 | 0.00943 S/m
x2 = 0, x1 = 1.63e-05 | 0.00978 S/m
x2 = 0, x1 = 1.734e-05 | 0.0102 S/m
x2 = 0, x1 = 1.922e-05 | 0.0105 S/m
x2 = 0, x1 = 1.995e-05 | 0.0108 S/m
x2 = 0, x1 = 2.172e-05 | 0.0111 S/m
x2 = 0, x1 = 2.276e-05 | 0.0113 S/m
x2 = 0, x1 = 2.443e-05 | 0.0115 S/m
x2 = 0, x1 = 2.599e-05 | 0.0117 S/m
x2 = 0, x1 = 2.734e-05 | 0.012 S/m
x2 = 0, x1 = 2.859e-05 | 0.0122 S/m
x2 = 1e-08, x1 = 1e-08 | 0.000339 S/m and 0.000404 S/m
x2 = 1e-08, x1 = 3e-08 | 0.000436 S/m
x2 = 1e-08, x1 = 4e-08 | 0.000343 S/m
x2 = 1e-08, x1 = 1.2e-07 | 0.000394 S/m
x2 = 2e-08, x1 = 2e-08 | 0.000534 S/m
x2 = 2e-08, x1 = 3e-08 | 0.000686 S/m and 0.000765 S/m
x2 = 2e-08, x1 = 4e-08 | 0.000522 S/m and 0.000583 S/m and 0.000801 S/m
x2 = 2e-08, x1 = 5e-08 | 0.000647 S/m and 0.000697 S/m
x2 = 2e-08, x1 = 7e-08 | 0.000383 S/m
x2 = 2e-08, x1 = 8e-08 | 0.000422 S/m
x2 = 2e-08, x1 = 1.5e-07 | 0.000412 S/m
x2 = 2e-08, x1 = 1.9e-07 | 0.000438 S/m
x2 = 3e-08, x1 = 1e-08 | 0.000594 S/m
x2 = 3e-08, x1 = 4e-08 | 0.000836 S/m
x2 = 3e-08, x1 = 5e-08 | 0.000883 S/m
x2 = 3e-08, x1 = 6e-08 | 0.000733 S/m
x2 = 3e-08, x1 = 7e-08 | 0.000772 S/m
x2 = 3e-08, x1 = 1.1e-07 | 0.000459 S/m
x2 = 3e-08, x1 = 2.3e-07 | 0.000467 S/m
x2 = 3e-08, x1 = 3e-07 | 0.000493 S/m
x2 = 4e-08, x1 = 2e-08 | 0.000416 S/m and 0.00028 S/m
x2 = 4e-08, x1 = 6e-08 | 0.000919 S/m
x2 = 4e-08, x1 = 8e-08 | 0.000812 S/m
x2 = 4e-08, x1 = 1e-07 | 0.000848 S/m
x2 = 4e-08, x1 = 1.7e-07 | 0.000541 S/m
x2 = 4e-08, x1 = 3.6e-07 | 0.000522 S/m
x2 = 5e-08, x1 = 1e-08 | 0.000679 S/m
x2 = 5e-08, x1 = 7e-08 | 0.000941 S/m
x2 = 5e-08, x1 = 1.2e-07 | 0.000887 S/m
x2 = 5e-08, x1 = 4.3e-07 | 0.000555 S/m
x2 = 6e-08, x1 = 2e-08 | 0.000797 S/m
x2 = 6e-08, x1 = 6e-08 | 0.000747 S/m
x2 = 6e-08, x1 = 9e-08 | 0.000991 S/m
x2 = 6e-08, x1 = 2.4e-07 | 0.000642 S/m
x2 = 7e-08, x1 = 1.1e-07 | 0.00101 S/m
x2 = 7e-08, x1 = 1.5e-07 | 0.000924 S/m
x2 = 7e-08, x1 = 2.9e-07 | 0.000707 S/m
x2 = 8e-08, x1 = 1e-08 | 0.000628 S/m
x2 = 8e-08, x1 = 2e-08 | 0.000891 S/m
x2 = 8e-08, x1 = 3e-08 | 0.00034 S/m
x2 = 8e-08, x1 = 5e-08 | 0.00106 S/m
x2 = 8e-08, x1 = 1.9e-07 | 0.00096 S/m
x2 = 8e-08, x1 = 3.2e-07 | 0.000765 S/m
x2 = 9e-08, x1 = 6e-08 | 0.00125 S/m
x2 = 9e-08, x1 = 1.3e-07 | 0.00105 S/m
x2 = 9e-08, x1 = 3.7e-07 | 0.000826 S/m
x2 = 1e-07, x1 = 6e-08 | 0.00139 S/m
x2 = 1e-07, x1 = 1.5e-07 | 0.00109 S/m
x2 = 1.1e-07, x1 = 7e-08 | 0.00148 S/m
x2 = 1.1e-07, x1 = 1.1e-07 | 0.001 S/m
x2 = 1.2e-07, x1 = 3e-08 | 0.00103 S/m
x2 = 1.2e-07, x1 = 5e-08 | 0.000383 S/m
x2 = 1.2e-07, x1 = 8e-08 | 0.00152 S/m
x2 = 1.2e-07, x1 = 1.7e-07 | 0.00113 S/m
x2 = 1.4e-07, x1 = 1.4e-07 | 0.00108 S/m
x2 = 1.4e-07, x1 = 2.1e-07 | 0.00116 S/m
x2 = 1.5e-07, x1 = 4e-08 | 0.00112 S/m
x2 = 1.5e-07, x1 = 6e-08 | 0.000443 S/m
x2 = 1.5e-07, x1 = 1e-07 | 0.00161 S/m
x2 = 1.6e-07, x1 = 2e-08 | 0.000934 S/m
x2 = 1.6e-07, x1 = 7e-08 | 0.000477 S/m
x2 = 1.7e-07, x1 = 1.1e-07 | 0.00167 S/m
x2 = 1.8e-07, x1 = 1.8e-07 | 0.00116 S/m
x2 = 1.8e-07, x1 = 2.7e-07 | 0.0012 S/m
x2 = 1.9e-07, x1 = 2e-08 | 0.00106 S/m
x2 = 2e-07, x1 = 9e-08 | 0.000571 S/m
x2 = 2e-07, x1 = 1.3e-07 | 0.00173 S/m
x2 = 2.2e-07, x1 = 5e-08 | 0.00121 S/m
x2 = 2.2e-07, x1 = 2.2e-07 | 0.00125 S/m
x2 = 2.3e-07, x1 = 3e-08 | 0.00115 S/m
x2 = 2.6e-07, x1 = 1.7e-07 | 0.00178 S/m
x2 = 2.6e-07, x1 = 2.6e-07 | 0.00135 S/m
x2 = 2.8e-07, x1 = 3e-08 | 0.00131 S/m
x2 = 3e-07, x1 = 7e-08 | 0.00125 S/m
x2 = 3e-07, x1 = 1.3e-07 | 0.000632 S/m
x2 = 3e-07, x1 = 2e-07 | 0.00186 S/m
x2 = 3e-07, x1 = 3e-07 | 0.00143 S/m
x2 = 3.1e-07, x1 = 3e-08 | 0.00138 S/m
x2 = 3.4e-07, x1 = 4e-08 | 0.00144 S/m
x2 = 3.4e-07, x1 = 3.4e-07 | 0.00147 S/m
x2 = 3.6e-07, x1 = 4e-08 | 0.00156 S/m
x2 = 3.7e-07, x1 = 2.4e-07 | 0.00196 S/m
x2 = 4e-07, x1 = 4e-08 | 0.00168 S/m
x2 = 4.1e-07, x1 = 1e-07 | 0.0013 S/m
x2 = 4.1e-07, x1 = 1.8e-07 | 0.000659 S/m
x2 = 4.1e-07, x1 = 2.7e-07 | 0.00203 S/m
x2 = 4.6e-07, x1 = 3.1e-07 | 0.00208 S/m
x2 = 4.7e-07, x1 = 5e-08 | 0.00179 S/m
x2 = 5.1e-07, x1 = 2.2e-07 | 0.000678 S/m
x2 = 5.1e-07, x1 = 3.4e-07 | 0.0022 S/m
x2 = 5.4e-07, x1 = 6e-08 | 0.0019 S/m
x2 = 5.6e-07, x1 = 3.7e-07 | 0.00228 S/m
x2 = 5.8e-07, x1 = 1.5e-07 | 0.00133 S/m
x2 = 6.1e-07, x1 = 7e-08 | 0.00201 S/m
x2 = 6.6e-07, x1 = 2.8e-07 | 0.000706 S/m
x2 = 6.7e-07, x1 = 7e-08 | 0.00214 S/m
x2 = 7.9e-07, x1 = 3.4e-07 | 0.000733 S/m
x2 = 8.2e-07, x1 = 2e-07 | 0.00138 S/m
x2 = 9e-07, x1 = 3.9e-07 | 0.000778 S/m
x2 = 1.05e-06, x1 = 2.6e-07 | 0.00143 S/m
